In data set [1] the test system is Staphylococcus aureus. As to the kind of experiment: Antimicrobial activity against Staphylococcus aureus CECT 86 ATCC 12600 incubated for 18 hrs by microplate reader based assay. The note with it: CECT 86 ATCC 12600, 18 h; for MIC: read-out: MIC100. It is filed as functional.
Data set [2] has as its system Pseudomonas aeruginosa. As to the kind of experiment: Antimicrobial activity against Pseudomonas aeruginosa PAO1 CECT 4122 ATCC 15692 incubated for 18 hrs by microplate reader based assay. The class given is functional. The note with it: for MIC: read-out: MIC100.
Data set [3] in a line: Toxicity against macrophages (unknown origin) assessed as reduction in cell viability after 24 to 48 hrs by MTT assay. The class given is cell-based, Macrophage.
Data set [4] can be described thus: Selectivity index, ratio of CC50 for macrophages (unknown origin) to MIC50 for Staphylococcus aureus CECT 86 ATCC 12600. The class given is functional.
Data set [5] has as its system Staphylococcus aureus. As to the kind of experiment: Antimicrobial activity against methicillin-resistant Staphylococcus aureus incubated for 18 hrs by microplate reader based assay. It is filed as functional.
The test system of data set [6] is Staphylococcus epidermidis. As to the kind of experiment: Antimicrobial activity against Staphylococcus epidermidis CECT 231 ATCC 1798 incubated for 18 hrs by microplate reader based assay. It is filed as functional. The note with it: CECT 231 ATCC 1798, 18 h.
A short description of data set [7]: Antimicrobial activity against Streptococcus mutans CECT 479 ATCC 25175 incubated for 18 hrs by microplate reader based assay. It is filed as functional, Streptococcus mutans ATCC 25175. To be noted: CECT 479, 18 h.
Data set [8] is described as follows: Antimicrobial activity against Enterococcus faecalis CECT 481 ATCC 19433 incubated for 18 hrs by microplate reader based assay. The class given is functional, Enterococcus faecalis ATCC 19433. To be noted: CECT 481, 18 h.
Data set [9] concerns Burkholderia cenocepacia. The data set is described as follows: Antimicrobial activity against Burkholderia cenocepacia J2315 incubated for 18 hrs by microplate reader based assay. It is filed as functional. To be noted: J2315, 18 h.
Data set [10] is described as follows: Selectivity index, ratio of CC50 for macrophages (unknown origin) to MIC50 for methicillin-resistant Staphylococcus aureus. It is filed as functional.
A short description of data set [11]: Selectivity index, ratio of CC50 for macrophages (unknown origin) to MIC50 for Staphylococcus epidermidis CECT 231 ATCC 1798. The class given is functional.
Data set [12] in a line: Selectivity index, ratio of CC50 for macrophages (unknown origin) to MIC50 for Streptococcus mutans CECT 479 ATCC 25175. It is filed as functional.
Data set [13] can be described thus: Selectivity index, ratio of CC50 for macrophages (unknown origin) to MIC50 for Enterococcus faecalis CECT 481 ATCC 19433. It is filed as functional.
Data set [14] deals with Staphylococcus aureus. As to the kind of experiment: Anti-biofilm activity against Staphylococcus aureus CECT 86 ATCC 12600 incubated for 24 to 48 hrs. The class given is functional.
The subject of data set [15] is Staphylococcus aureus. The data set is described as follows: Bacteriolytic activity against Staphylococcus aureus CECT 86 ATCC 12600 at 36 uM incubated for 3 hrs by live/dead assay. The class given is functional, organism-based.
[16] abbreviates: PAO1 CECT 4122 ATCC 15692, 18 h.

Values after ≈ are worked out from the molar mass of the structure shown. Active and inactive are the calls of the source. The calls are words filed in the database; no cut-off is given here.

As for `C#CCNC12CC3CC(CC(C1)c1ccccc13)O2`, the MIC50 in data set [1] was greater than 1000 µM. For the same compound, the MIC50 result in [2] was “inactive”.

`NNC12CC3CC(CC(C1)c1ccccc13)O2` returned an MIC50 in data set [1] greater than 1000 µM. In [2], the MIC50 result is “inactive”.

As for `NC12CC3CC(CC(C1)c1ccccc13)O2`, in data set [1], the MIC50 was greater than 1000 µM. Also, in data set [2], the MIC50 entry is “inactive”.

Compound `CCN(CC)C12CC3CC(C)(CC(C1)c1ccccc13)O2` returned an MIC50 in data set [1] greater than 1000 µM. For the same compound, the MIC50 result in [2] was “inactive”.

On to `Nc1ccc2c(c1)C1CC3(N)CC2CC(F)(C1)C3` (stereo not given), for which, in [1], the MIC50 is less than 375 µM and the MIC is less than 1250 µM.

In data set [1], `CN(C)C12CC3CC(C)(CC(C1)c1ccccc13)C2` gave an MIC50 greater than 1000 µM. Moreover, in data set [2], the MIC50 entry was “inactive”.

In data set [1], `CC(=O)NC12CC3CC(C)(CC(C1)c1ccccc13)O2` yielded an MIC50 greater than 1000 µM. Further, the MIC50 entry in data set [2] is “inactive”.

With `Cl.NC12CC3CC(Cl)(CC(C1)c1ccccc13)C2`, the MIC50 in data set [1] was 36 µM; in data set [2] (setting [16]), 1250 µM; in data set [5] it was 75 µM; in data set [6], 75 µM; in data set [7] it was 60 µM; in data set [8] it was 60 µM. In data set [9], this compound came in with an MIC50 of less than 125 µM. Further, the MIC in data set [1] is less than 156 µM; in [2] (setting [16]), greater than 1250 µM; in [5] (read-out: MIC100), less than 180 µM; in [6] (read-out: MIC100), less than 250 µM; in [7] (read-out: MIC100), greater than 250 µM; in data set [8] (read-out: MIC100) it was greater than 250 µM. Also, in [9] (read-out: MIC100), the MIC is greater than 250 µM. Moreover, in data set [3], the CC50 amounted to 363 µM. For the same compound, the “Selectivity Index” value in data set [4] stood at 10.1; in data set [10] it was 4.84; in data set [11], 4.84; in data set [12], 6.05; in data set [13] it was 6.05. The MBIC50 in [14] was 45 µM. The result in [15] was Active.

On to `CN(C)C12CC3CC(F)(CC(C1)c1ccccc13)C2`, for which the MIC50 in [1] is greater than 1000 µM. Besides, the MIC50 entry in [2] is “inactive”.

As to `c1ccc(CN(Cc2ccccc2)C23CC4CC(CC(C2)c2ccccc24)O3)cc1`, in [1], the MIC50 was greater than 1000 µM. For the same compound, in data set [2], the MIC50 entry is “inactive”.

In turn, `c1ccc(CNC23CC4CC(CC(C2)c2ccccc24)O3)cc1` displayed an MIC50 in data set [1] greater than 1000 µM. In data set [2], the MIC50 result is “inactive”.

With `NC12CC3CC(F)(CC(C1)c1cc([N+](=O)[O-])ccc13)C2` (stereo not given), in [1], the MIC50 is 125 µM (≈ 34.5 µg/mL) and the MIC is less than 312 µM.

In [1], `CN(C)C12CC3CC(C)(CC(C1)c1ccccc13)O2` returned an MIC50 greater than 1000 µM. Also, in data set [2], the MIC50 result was “inactive”.

On to `O=C(O)c1cn(C2CC2)c2cc(N3CCNCC3)c(F)cc2c1=O` [CIPROFLOXACIN], for which the MIC50 turned out to be 0.3 µM (≈ 0.0994 µg/mL) in [1] and 1.2 µM (≈ 0.398 µg/mL) in [2] (setting [16]).

Regarding `CN(C)C12CC3CC(O)(CC(C1)c1ccccc13)C2`, in [1], the MIC50 was greater than 1000 µM and the MIC was greater than 10000 µM. Moreover, in [2] (setting [16]), the MIC50 is less than 2500 µM and the MIC stood at 5000 µM (≈ 1290 µg/mL). For the same compound, in data set [3], the 50% cytotoxic concentration (CC50) is greater than 100 µM.

Regarding `NC12CC3CC(F)(CC(C1)c1ccccc13)C2`, in data set [1], the MIC50 came out at 95 µM (≈ 22 µg/mL) and the MIC was less than 312 µM. In data set [2], the MIC50 result is “inactive”.

As to `CC12CC3CC(NCC(N)=O)(CC(C1)c1ccccc13)C2`, the MIC50 in [1] is greater than 1000 µM. Moreover, the MIC50 entry in data set [2] is “inactive”.

For the compound `CN(Cc1ccccc1)C12CC3CC(CC(C1)c1ccccc13)O2`, in [1], the MIC50 is greater than 1000 µM. The MIC50 entry in data set [2] is “inactive”.

Turning to `CC12CC3CC(NCc4ccccc4)(CC(C1)c1ccccc13)C2`, in [1], the MIC50 is greater than 1000 µM. For the same compound, in [2], the MIC50 entry was “inactive”.

Regarding `NC12CC3CC(C1)c1ccccc1C(C3)C2`, in [1], the MIC50 amounted to 17 µM (≈ 3.63 µg/mL) and the MIC is greater than 39 µM. For the same compound, the MIC50 entry in data set [2] is “inactive”. The half-maximal cytotoxic concentration (CC50) in [3] is 58.5 µM. Further, the “Selectivity Index” value in [4] is reported as 3.4.

Turning to `CC12CC3CC(N)(CC(C1)c1ccccc13)C2`, the MIC50 in data set [1] is greater than 1000 µM. Moreover, the MIC50 result in data set [2] is “inactive”.

Consider `CN(C)C12CC3CC(F)(CC(C1)c1cc([N+](=O)[O-])ccc13)C2` (stereo not given), for which, in [1], the MIC50 was less than 425 µM and the MIC is less than 1250 µM.

In [1], `CN(Cc1ccccc1)C12CC3CC(C)(CC(C1)c1ccccc13)C2` had an MIC50 greater than 1000 µM. In [2], the MIC50 entry was “inactive”.

Turning to `CN(C)C12CC3CC(C1)c1ccccc1C(C3)C2`, in data set [1], the MIC50 was determined as 304 µM (≈ 73.4 µg/mL) and the MIC is less than 625 µM. Moreover, in [2], the MIC50 result was “inactive”. Moreover, in [3], the CC50 was determined as 44.5 µM. For the same compound, the “Selectivity Index” value in data set [4] turned out to be 0.15.

With `CN(C)C12CC3CC(Cl)(CC(C1)c1ccccc13)C2`, in [1], the MIC50 is less than 625 µM and the MIC is less than 1250 µM.

(Values after ChEMBL document CHEMBL3352083, “Antibacterial activity of novel benzopolycyclic amines” (Bioorg Med Chem, 2015).)
